Measured values from US7662853B2, “Monoacetyldiacylglycerol derivative for the treatment of sepsis” (priority 2004, dated 2010).

Experiments:
T-cells [1] = assay: T-cell proliferation (3H-thymidine incorporation, SI); format: cell-based, C57BL/6 mice; conditions: 7th day
Text: Splenocytes were collected from C57BL/6 mice (provided from Asan Institute for Life Sciences Animal Lab., Seoul, Korea) spleens. Then, single cell suspensions were obtained by repeated aspiration and flushing. Red blood cells were removed using ammonium chloride and then passed through nylon wool to remove debris and clumps. T-cells were purified using magnetic bead (MACS bead, Miltenyi Biotec, bergich gladbach, Germany) containing anti-goat IgG MACS bead, Miltenyi Biotec, bergich gladbach, Germany) or anti-mouse CD4 (MACS bead, Miltenyi Biotec, bergich gladbach, Germany) or anti-mouse CD8 antibody (MACS bead, Miltenyi Biotec, bergich gladbach, Germany) (Turner and Dockrell (1996) Immunology, 87: 339-342).
T cell suspensions were suspended in Isocove's modified Dulbecco's medium (IMDM, Gibco, Grand Island, N.Y.) supplemented with 10% fetal bovine serum (referred as ‘FBS’ hereinafter) (Gibco, Grand Island, N.Y.). […] On the 6th day, cells were incubated with 1 μCi ^3H-thymidine/well for 24 hours. On the 7th day, the cells were harvested and the […] (referred as ‘SI’ hereinafter) was calculated by the following Mathematical Formula 1. SI=^3H-thymidine absorbed by wells of experimental group (CPM in sample)/^3H-thymidine absorbed by wells of control group (CPM in control) [Mathematical Formula 1]

T-cell (T-4 and T-8) = assay: Measurement of cytokine (IL-2) by Elispot, T cell activity; format: cell-based, mouse; conditions: FIG. 1: Compound 3 1 μg/ml
Protocol: Elispot bioassay ([…] enzyme-linked immunospot assay) is a very sensitive quantification assay for detecting cytokine bound to the membrane because the bottom of each well of Elispot plates used in this assay was pre-coated with a cytokine specific antibody. Thus, Elispot assay was performed to measure the T cell activity. […] Each sample was tested in duplicate. Counting the number of IL-2 producing cells by Elispot is accomplished with Elispot reader (AID Elispot Reader System).

T-cells [2] = assay: Measurement of cytokine by Bio-plex in activated T-cells; format: cell-based; conditions: anti-CD3, anti-CD28 treated T-cells, 0.1, 1 μg/ml, 5 days, vs control
Protocol: Bio-plex can measure huge amount of cytokine at a time in a well. Thus, Bio-plex kit was used to quantify 8 kinds of cytokines of Th1/Th2 channels, which are secreted when T-cells are activated. Sterilized 24-well tissue culture plate (Nunc, Denmark) was treated with anti-CD3 and anti-CD28. Then, the plate was inoculated with T-cells by 2×10^6 cells/ml. […] On the 5th day, culture solutions at each different stage were recovered, followed by centrifugation. Supernatants were obtained and cytokine secreted therein was quantified by using Bio-plex kit according to the manufacturer's instruction (Bio-rad).

dendritic cells = assay: Expression of adhesion molecules of dendritic cells (RT-PCR); format: cell-based, Balb/c AnN mice; conditions: 1 μg/ml, compared to control
Protocol: Bone marrow cells were obtained from the femurs and tibias of Balb/c AnN mice (Park, J. et al. (2003) J. Korean Med. Sci., 18: 372-380). The cells were washed 3 times in RPMI, and then mononuclear cells were obtained. These mononuclear cells were allowed to adhere to tissue culture flask 3 hours in RPMI and 10% FBS. After incubation, the adherent cells (monocytes) were removed and non-adherent cells were placed in 100 mm tissue culture dishes, in a concentration of 1×10^5 cells/ml in RPMI plus 10% FBS supplemented with 20 ng/ml murine rGM-CSF (R & D systems, Minneapolis, Minn., USA), 10 ng/ml, murine IL-4 (R&D systems), and 2.5 ng/ml murine TNF-α (R & D systems). Culture dishes were fed every 3 days. Murine TNF-α (R & D systems) was added at the 6th day of the culture. After that, murine TNF-α (R & D systems) was added every 3 days until on the 11th day. Mature dendritic cells were harvested for RT-PCR of adhesion molecule studies. […]
Total RNA separated from dendritic cells and MS-5, low density cells cultured with oligo(dt)-primer, was reverse-transcribed, and PCR was performed at 94° C. for 30 seconds, 65° C. for 30 seconds and 72° C. for 50 seconds. […] For the quantification, PCR with GAPDH was performed to confirm the corresponding cDNA.

B16F10 cells = assay: Melanoma model in mice; format: in vivo, C57BL/6 mice; conditions: Compound 3 50 mg/kg/day P.O.
Protocol: 6 week female C57BL/6 mice (provided from Asan Institute for Life Sciences Animal Lab., Seoul, Korea) were housed in specific pathogen free unit.
B16F10 cells (2×10^4) suspended in 100 μl of RPMI 1640 serum-free medium were intravenously injected via tail vein. One week before tumor cell injection, the following 3 groups were treated.
2) Dendritic cells (DC) (5×10^5 cells/day)+tumor lysate treated group
In the case of DC+tumor lysate treated group, one week before melanoma injection, 5×10^5 DC cells mixed with tumor lysate were injected to the abdominal cavity every 1 weeks. […] As a result, gross findings at 4th week control group observed multiple metastatic lesions in both lungs.

`CCCCC/C=C\C/C=C\CCCCCCCC(=O)OC(COC(C)=O)COC(=O)CCCCCCCCCCCCCCC` (centres unmarked) [Compound 3] was tested, and the SI (T-cells [1]; 0.01 μg/ml) was 1.83 ± 0.32, the SI (T-cells [1]; 0.1 μg/ml) was 1.96 ± 0.18 and the “increased T-4 activity comparing to control group (IL-2 Elispot spots)” value (T-cell (T-4 and T-8); T-4 cells) was 1.52 folds. For the same molecule, the “increased T-8 activity comparing to control group (IL-2 Elispot spots)” value (T-cell (T-4 and T-8); T-8 cells) was 1.46 folds, the “amounts of secreted cytokines IL-2, IL-4 and IL-5” value (T-cells [2]) was “bigger than those in a control group” and the “expressions of adhesion molecules Icam-2, VLA-5, LFA-1” value (dendritic cells) was “significantly increased”. For the same molecule, the “gross findings, metastatic lesions in the lung” value (B16F10 cells; 4th week after B16F10 i.v. injection) was “no evidence of disease in the lung” and the Survival rate (B16F10 cells; observation for 6 weeks after melanoma (B16F10) injection) was 90%.
